# Laboratory results published in article PMC8558867, “Development of BromoTag: A “Bump-and-Hole”–PROTAC System to Induce Potent, Rapid, and Selective Degradation of Tagged Target Proteins” (Journal of Medicinal Chemistry, 2021).
# Assays:
# Format in all cases: cell-based, human
# [1] = tested on: HEK293 cells; test: CellTiter-Glo 2.0 cell viability assay, HEK293; settings: HEK293, up to 1–10 μM
# Method: (§2) All cell lines were treated with compounds in duplicate (triplicate for DMSO controls) at a 1× concentration in 0.1% DMSO. The compounds were serially diluted to produce a 7-point, 10-fold titration. The cells were treated with 50:100 μL of compound for a final concentration of 10 μM:10 pM in 0.1% DMSO. At the point of spectrometric analysis, cells were treated with 100 μL of Promega CellTiter-Glo 2.0 Cell Viability Assay reagent. The plates were subjected to an orbital shaker for 2 min to encourage lysis and left for a further 5 min to reach peak luminescence. Luminescence was then recorded on a BMG Labtech PHERAstar luminescence plate reader with recommended settings. Data extracted from this analysis was analyzed with GraphPad Prism (v. 8.2.0, GraphPad) and normalized to the DMSO vehicle control. The EC50 values were derived from these plots.
# [2] = tested on: BromoTag-Brd2; test: Time course degradation assay (western blot, 0–36 h) in heterozygous BromoTag-Brd2 HEK293 cells; settings: 500 nM
# Method: Heterozygous BromoTag-Brd2 HEK293 cells were plated at a density of 5 × 10^5 cells per well of a six-well healthy plate a day prior to initiating the time course assay. […] The time point range was between 0 and 36 h. Treatment was applied in a staggered fashion to enable all time points to be harvested at the same time.
# (§1) All cells were harvested on ice with RIPA lysis and extraction buffer (Thermo Fisher Scientific, 89901) supplemented with protease inhibitor cocktail (Merck, 11697498001) and Benzonase Nuclease (Sigma, E1014) before being stored at −20 °C prior to use. Total protein quantity was determined using the BCA protein assay (#23225, Pierce, Rockford, Illinois). The protein concentration was determined using the BCA assay (Thermo Fisher Scientific, 23225). The samples were then prepared and loaded onto NuPAGE 4–12% bis–tris Midi gels (Thermo Fisher Scientific, WG1403A), followed by the transfer of proteins onto nitrocellulose membranes (EMD Millipore). The membranes were blocked for 1 h prior to incubation with the primary antibodies using 5% Milk TBST. […] All western blots were analyzed for band intensities using Image Lab from Bio-Rad (LI-COR, Biosciences). The data extracted from these blots were then plotted and analyzed using Prism (v. 8.2.0, GraphPad).
# [3] = tested on: proteome of heterozygous BromoTag-Brd2 HEK293 cells; test: Multiplexed TMT labeling mass spectrometry proteomics; settings: 1 μM, 2 h
# Method: To do this, we subjected our heterozygous BromoTag-Brd2 HEK293 cell line to a 1 μM treatment of 46, its non-degrading control 52, or vehicle (DMSO) for 2 h prior to harvest. The harvested lysate was then subjected to multiplexed tandem mass tag (TMT) labeling mass spectrometry to enable quantitative and unbiased analysis of protein levels in each condition.
# CRISPR-modified BromoTag-Brd2 HEK293 cells (5 × 10^6) were seeded on a […] 24 h before treatment. The cells were treated with either DMSO, 1 μM AGB1, or 1 μM cis-AGB1. After 2 h of treatment, the cells were washed twice with PBS. The cells were lysed in 150 μL of 100 mM TEAB and 5% (w/v) sodium dodecyl sulfate. The lysate was sonicated for 10 s and then centrifuged at 15,000g for 5 min with the supernatant collected post-centrifugation. The samples were then quantified using a micro-BCA protein assay kit (Thermo Fisher Scientific); 300 μg of each sample was then reduced, alkylated, and then digested using the Strap mini protocol (protifi) as described by the manufacturer (protifi) with some modification. The samples were double-digested with trypsin (1:40) first overnight and then for another 6 h with the same ratio (1:40) in 50 mM TEAB buffer. The peptides were quantified using a quantitative fluorometric peptide assay (Thermo Fisher Scientific). […]
# [4] = tested on: BromoTag-Brd2; test: Competition assay (inhibitor pretreatment, western blot); settings: 200 nM 46 for 3 h after 1 h pretreatment
# Method: Heterozygous BromoTag-Brd2 HEK293 cells were plated in six-well plates at a density of 5 × 10^5 cells per well in 2 mL DMEM. […] After 3 h, the cells were harvested for subsequent processing via western blot. Each treatment was performed in tandem to produce two technical repeats per condition. The six-well plates were incubated for 4 h at 37 °C and 5% CO2 throughout the experiment.
# as §1
# [5] = tested on: 22RV1 cells; test: CellTiter-Glo 2.0 cell viability assay, 22RV1; settings: 22RV1, up to 1–10 μM
# Method: as §2
structure (smiles),measurement,setting,value
"CC[C@@H](C(=O)OCCOCCOCCOCC(=O)N[C@H](C(=O)N1C[C@H](O)C[C@H]1C(=O)NCc1ccc(-c2scnc2C)cc1)C(C)(C)C)[C@@H]1N=C(c2ccc(Cl)cc2)c2c(sc(C)c2C)-n2c(C)nnc21 [AGB1 (46), (S)-13-((2S,4R)-4-Hydroxy-2-((4-(4-methylthiazol-5-yl)benzyl)carbamoyl)pyrrolidine-1-carbonyl)-14,14-dimethyl-11-oxo-3,6,9-trioxa-12-azapentadecyl (R)-2-((S)-4-(4-chlorophenyl)-2,3,9-trimethyl-6H-thieno[3,2-f][1,2,4]triazolo[4,3-a][1,4]diazepin-6-yl)butanoate]",cytotoxicity,[1],lack of cytotoxicity
same,time to completely degrade BromoTag-Brd2,[2],≤ 6 h
same,proteins significantly degraded among the 6621 proteins quantified,[3],only Brd2 was shown to be significantly degraded
same,on-target degradation activity upon pretreatment with MLN4924 or VH298,"[4]; 3 μM MLN4924, 10 μM VH298",completely abrogated
same,on-target degradation activity upon pretreatment with MG132,[4]; 50 μM MG132,blocked
same,cytotoxicity,[5],lack of cytotoxicity
